According to patent publication US20250382287A1, “PHARMACEUTICALLY ACCEPTABLE SALT AND CRYSTAL FORM OF NITROGEN-CONTAINING BRIDGE HETEROCYCLIC DERIVATIVE, AND METHOD FOR PREPARING SAME” (JIANGSU HENGRUI PHARMACEUTICALS CO., LTD., priority 2022, published 2025):

Assays:
[1] = DVS (dynamic vapor sorption) hygroscopicity testing; type: physicochemical; details: for hygroscopic weight gain under normal storage conditions / hygroscopic weight gain under accelerated experimental conditions / hygroscopic weight gain under extreme conditions: DVS; for hygroscopic weight gain under normal storage conditions: 25° C. and 60% RH; for hygroscopic weight gain under accelerated experimental conditions: 70% RH; for hygroscopic weight gain under extreme conditions: 90% RH; for crystal form re-identification after DVS testing: XRPD after DVS
Protocol: DVS refers to dynamic vapor sorption: Surface Measurement Systems instrinsic was adopted; the humidity started at 50%, the humidity range investigated was 0%-95%, and the humidity was increased in increments of 10%; the criterion was that each gradient mass change dM/dT is less than 0.002%, TMAX 360 min, two cycles.

[2] = Long-term/accelerated stability (sealed, 25° C./60% RH and 40° C./75% RH); details: for chemical stability / physical stability: 25° C./60% RH and 40° C./75% RH
[3] = Influencing factor stability (open flasks, light, high temperature, high humidity, 30 days); details: for chemical stability under high humidity conditions: high humidity conditions only
[4] = target: T1, Factor B enzyme (recombinant human complement factor B protein, as CVF:Bb complex) (Homo sapiens, UniProt P00751); details: biological evaluation in Application No. WO2022143845; cited from earlier work
T1 construct: host or cells: HD CHO-S cells, pcDNA3.4 vector

[5] = 25° C., 60% RH, sealed, 1 month
[6] = 25° C., 60% RH, sealed, 2 months
[7] = 25° C., 60% RH, sealed, 3 months
[8] = 25° C., 60% RH, sealed, 6 months
[9] = 40° C., 75% RH, sealed, 1 month
[10] = 40° C., 75% RH, sealed, 2 months
[11] = 40° C., 75% RH, sealed, 3 months
[12] = 40° C., 75% RH, sealed, 6 months
[13] = Light exposure (4500 Lux), 5 days, open flask
[14] = Light exposure (4500 Lux), 10 days, open flask
[15] = Light exposure (4500 Lux), 30 days, open flask
[16] = light exposure (4500 Lux), 40° C. and 60° C., high humidity RH 75% and 92.5%, 30 days

T1 sequence (P00751 260-764 limits assumed): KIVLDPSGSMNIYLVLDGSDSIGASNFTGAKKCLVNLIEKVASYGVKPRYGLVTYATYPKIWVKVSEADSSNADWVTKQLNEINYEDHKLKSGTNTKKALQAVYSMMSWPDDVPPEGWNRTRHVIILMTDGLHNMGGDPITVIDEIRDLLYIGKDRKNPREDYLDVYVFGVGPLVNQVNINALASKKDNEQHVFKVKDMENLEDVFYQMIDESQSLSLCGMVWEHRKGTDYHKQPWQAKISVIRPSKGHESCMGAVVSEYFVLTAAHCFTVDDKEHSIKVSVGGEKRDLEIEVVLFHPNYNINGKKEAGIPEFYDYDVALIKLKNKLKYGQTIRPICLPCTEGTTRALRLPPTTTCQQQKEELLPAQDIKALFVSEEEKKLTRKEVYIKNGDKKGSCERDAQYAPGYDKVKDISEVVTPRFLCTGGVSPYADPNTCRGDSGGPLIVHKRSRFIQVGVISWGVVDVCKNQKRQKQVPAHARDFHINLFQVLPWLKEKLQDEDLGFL
T1 sequence (Q91132 23-649 partner limits assumed): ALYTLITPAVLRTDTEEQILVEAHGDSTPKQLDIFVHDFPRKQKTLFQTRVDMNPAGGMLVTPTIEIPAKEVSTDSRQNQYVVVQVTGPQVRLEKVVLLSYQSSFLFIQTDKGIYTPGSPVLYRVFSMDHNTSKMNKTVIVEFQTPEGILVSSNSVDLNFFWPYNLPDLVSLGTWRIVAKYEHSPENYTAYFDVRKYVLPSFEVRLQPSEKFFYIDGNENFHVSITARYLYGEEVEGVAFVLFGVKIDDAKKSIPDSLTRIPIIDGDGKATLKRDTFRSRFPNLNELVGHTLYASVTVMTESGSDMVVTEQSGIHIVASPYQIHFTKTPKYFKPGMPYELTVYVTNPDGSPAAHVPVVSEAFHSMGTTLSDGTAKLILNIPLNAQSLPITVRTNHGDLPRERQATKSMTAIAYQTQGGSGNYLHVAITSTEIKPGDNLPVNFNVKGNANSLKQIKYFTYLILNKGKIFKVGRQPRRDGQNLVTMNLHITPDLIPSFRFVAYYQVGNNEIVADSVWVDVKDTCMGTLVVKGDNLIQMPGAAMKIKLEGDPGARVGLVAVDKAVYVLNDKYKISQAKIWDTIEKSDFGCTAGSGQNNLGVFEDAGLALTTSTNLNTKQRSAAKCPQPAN
T1 sequence (Q91132 733-984 partner limits assumed): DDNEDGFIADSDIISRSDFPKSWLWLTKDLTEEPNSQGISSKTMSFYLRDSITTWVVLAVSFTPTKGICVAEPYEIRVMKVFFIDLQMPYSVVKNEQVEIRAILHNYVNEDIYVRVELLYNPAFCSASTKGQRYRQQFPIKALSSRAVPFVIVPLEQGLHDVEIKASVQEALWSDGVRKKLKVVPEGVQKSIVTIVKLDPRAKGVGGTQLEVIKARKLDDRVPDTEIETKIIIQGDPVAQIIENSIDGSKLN
T1 sequence (Q91132 1264-1642 partner limits assumed): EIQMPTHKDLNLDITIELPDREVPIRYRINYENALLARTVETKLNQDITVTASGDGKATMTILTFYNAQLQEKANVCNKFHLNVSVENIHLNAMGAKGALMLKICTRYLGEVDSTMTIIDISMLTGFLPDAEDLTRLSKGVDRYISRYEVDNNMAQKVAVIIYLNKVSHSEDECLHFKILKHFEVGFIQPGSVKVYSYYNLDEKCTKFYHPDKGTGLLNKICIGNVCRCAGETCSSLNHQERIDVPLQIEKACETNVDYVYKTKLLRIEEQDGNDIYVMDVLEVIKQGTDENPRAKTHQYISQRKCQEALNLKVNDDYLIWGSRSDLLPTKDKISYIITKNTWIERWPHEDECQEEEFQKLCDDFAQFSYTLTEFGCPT

## CCO[C@H]1C[C@H]2CC[C@@](c3ccc(C(=O)O)cc3)(C1)N2Cc1c(OC)cc(C)c2[nH]ccc12.Cc1ccc(S(=O)(=O)O)cc1 [crystal form I of the p-toluenesulfonate, 4-((1S,3S,5R)-3-ethoxy-8-((5-methoxy-7-methyl-1H-indol-4-yl)methyl)-8-azabicyclo[3.2.1]octan-1-yl)benzoic acid-p-toluenesulfonate]
[1]
  hygroscopic weight gain under normal storage conditions: about 1.22%
  hygroscopic weight gain under accelerated experimental conditions: about 1.37%
  hygroscopic weight gain under extreme conditions: about 1.87%
  crystal form re-identification after DVS testing: did not change
[2]; [5]
  Purity %: 100.0%
  Salt form: No change
[2]; [6]
  Purity %: 100.0%
  Salt form: No change
[2]; [7]
  Purity %: 100.0%
  Salt form: No change
[2]; [8]
  Purity %: 100.0%
  Salt form: No change
[2]; 6 months
  chemical stability: relatively good
  physical stability: relatively good
[2]; [9]
  Purity %: 100.0%
  Salt form: No change
[2]; [10]
  Purity %: 99.8%
  Salt form: No change
[2]; [11]
  Purity %: 99.8%
  Salt form: No change
[2]; [12]
  Purity %: 99.7%
  Salt form: No change
[2]; Initial
  Purity %: 100.0%
[3]; 40° C., 5 days, open flask
  Color and state: White solid
  Purity %: 99.8%
  Salt form: No change
[3]; 40° C., 10 days, open flask
  Color and state: White solid
  Purity %: 99.7%
  Salt form: No change
[3]; 40° C., 30 days, open flask
  Color and state: White solid
  Purity %: 99.5%
  Salt form: No change
[3]; 60° C., 5 days, open flask
  Color and state: White solid
  Purity %: 99.8%
  Salt form: No change
[3]; 60° C., 10 days, open flask
  Color and state: White solid
  Purity %: 99.8%
  Salt form: No change
[3]; 60° C., 30 days, open flask
  Color and state: White solid
  Purity %: 99.7%
  Salt form: No change
[3]; 75% RH, 5 days, open flask
  Color and state: White solid
  Purity %: 99.9%
  Salt form: No change
[3]; 75% RH, 10 days, open flask
  Color and state: White solid
  Purity %: 99.9%
  Salt form: No change
[3]; 75% RH, 30 days, open flask
  Color and state: White solid
  Purity %: 99.9%
  Salt form: No change
[3]; 92.5% RH, 5 days, open flask
  Color and state: White solid
  Purity %: 100.0%
  Salt form: No change
[3]; 92.5% RH, 10 days, open flask
  Color and state: White solid
  Purity %: 100.0%
  Salt form: No change
[3]; 92.5% RH, 30 days, open flask
  Color and state: White solid
  Purity %: 99.9%
  Salt form: No change
[3]; Initial, 0 days
  Color and state: White solid
  Purity %: 100.0%
[3]; [13]
  Color and state: White solid
  Purity %: 99.9%
  Salt form: No change
[3]; [14]
  Color and state: White solid
  Purity %: 99.9%
  Salt form: No change
[3]; [15]
  Color and state: White solid
  Purity %: 99.7%
  Salt form: No change
[3]; [16]
  chemical stability: good
  physical stability: good

## CCO[C@H]1C[C@H]2CC[C@@](c3ccc(C(=O)O)cc3)(C1)N2Cc1c(OC)cc(C)c2[nH]ccc12.Cl [crystal form II of the hydrochloride, 4-((1S,3S,5R)-3-ethoxy-8-((5-methoxy-7-methyl-1H-indol-4-yl)methyl)-8-azabicyclo[3.2.1]octan-1-yl)benzoic acid-hydrochloride]
[1]
  hygroscopic weight gain under normal storage conditions: about 3.93%
  hygroscopic weight gain under accelerated experimental conditions: about 4.28%
  hygroscopic weight gain under extreme conditions: about 5.00%
  crystal form re-identification after DVS testing: did not change
[2]; [5]
  Purity %: 100.0%
[2]; [6]
  Purity %: 100.0%
[2]; [7]
  Purity %: 100.0%
  Salt form: No change
[2]; [8]
  Purity %: 100.0%
  Salt form: No change
[2]; 6 months
  chemical stability: good
  physical stability: good
[2]; [9]
  Purity %: 100.0%
[2]; [10]
  Purity %: 100.0%
[2]; [11]
  Purity %: 99.9%
[2]; [12]
  Purity %: 99.9%
[2]; Initial
  Purity %: 100.0%
[3]; 40° C., 5 days, open flask
  Color and state: White solid
  Purity %: 99.4%
  Salt form: No change
[3]; 40° C., 10 days, open flask
  Color and state: White solid
  Purity %: 99.3%
  Salt form: No change
[3]; 40° C., 30 days, open flask
  Color and state: White solid
  Purity %: 98.6%
  Salt form: No change
[3]; 60° C., 5 days, open flask
  Color and state: White solid
  Purity %: 99.4%
  Salt form: No change
[3]; 60° C., 10 days, open flask
  Color and state: White solid
  Purity %: 98.8%
  Salt form: No change
[3]; 60° C., 30 days, open flask
  Color and state: White solid
  Purity %: 97.4%
  Salt form: No change
[3]; 75% RH, 5 days, open flask
  Color and state: White solid
  Purity %: 100.0%
  Salt form: No change
[3]; 75% RH, 10 days, open flask
  Color and state: White solid
  Purity %: 100.0%
  Salt form: No change
[3]; 75% RH, 30 days, open flask
  Color and state: White solid
  Purity %: 100.0%
  Salt form: No change
[3]; 92.5% RH, 5 days, open flask
  Color and state: White solid
  Purity %: 100.0%
  Salt form: No change
[3]; 92.5% RH, 10 days, open flask
  Color and state: White solid
  Purity %: 100.0%
  Salt form: No change
[3]; 92.5% RH, 30 days, open flask
  Color and state: White solid
  Purity %: 100.0%
  Salt form: No change
[3]; Initial, 0 days
  Color and state: White solid
  Purity %: 100.0%
  Salt form: Crystal form
[3]; [13]
  Color and state: White solid
  Purity %: 99.8%
  Salt form: No change
[3]; [14]
  Color and state: White solid
  Purity %: 99.2%
  Salt form: No change
[3]; [15]
  Color and state: White solid
  Purity %: 96.5%
  Salt form: No change
[3]; 30 days
  chemical stability under high humidity conditions: good
[3]; [16]
  physical stability: good

## CCO[C@H]1C[C@H]2CC[C@@](c3ccc(C(=O)O)cc3)(C1)N2Cc1c(OC)cc(C)c2[nH]ccc12 [compound I, 4-((1S,3S,5R)-3-ethoxy-8-((5-methoxy-7-methyl-1H-indol-4-yl)methyl)-8-azabicyclo[3.2.1]octan-1-yl)benzoic acid]
[4]
  inhibitory effect on the enzyme activity of Factor B: relatively good inhibitory effect

## CCO[C@H]1C[C@H]2CC[C@@](c3ccc(C(=O)O)cc3)(C1)N2Cc1c(OC)cc(C)c2[nH]ccc12.Cl [crystal form III of the hydrochloride, 4-((1S,3S,5R)-3-ethoxy-8-((5-methoxy-7-methyl-1H-indol-4-yl)methyl)-8-azabicyclo[3.2.1]octan-1-yl)benzoic acid-hydrochloride]
[1]
  hygroscopic weight gain under normal storage conditions: about 2.57%
  hygroscopic weight gain under accelerated experimental conditions: about 2.960%
  hygroscopic weight gain under extreme conditions: about 4.5700%
  crystal form re-identification after DVS testing: did not change
[2]; [5]
  Purity %: 99.6%
[2]; [6]
  Purity %: 99.6%
[2]; [7]
  Purity %: 99.6%
[2]; [8]
  Purity %: 99.6%
[2]; 6 months
  chemical stability: good
  physical stability: good
[2]; [9]
  Purity %: 99.6%
[2]; [10]
  Purity %: 99.5%
[2]; [11]
  Purity %: 99.5%
[2]; [12]
  Purity %: 99.4%
[2]; Initial
  Purity %: 99.6%
[3]; 40° C., 5 days, open flask
  Color and state: White solid
  Purity %: 99.6%
  Salt form: No change
[3]; 40° C., 10 days, open flask
  Color and state: White solid
  Purity %: 99.4%
  Salt form: No change
[3]; 40° C., 30 days, open flask
  Color and state: White solid
  Purity %: 99.0%
  Salt form: No change
[3]; 60° C., 5 days, open flask
  Color and state: White solid
  Purity %: 99.3%
  Salt form: No change
[3]; 60° C., 10 days, open flask
  Color and state: White solid
  Purity %: 99.1%
  Salt form: No change
[3]; 60° C., 30 days, open flask
  Color and state: White solid
  Purity %: 98.5%
  Salt form: No change
[3]; 75% RH, 5 days, open flask
  Color and state: White solid
  Purity %: 99.6%
  Salt form: No change
[3]; 75% RH, 10 days, open flask
  Color and state: White solid
  Purity %: 99.6%
  Salt form: No change
[3]; 75% RH, 30 days, open flask
  Color and state: White solid
  Salt form: No change
[3]; 92.5% RH, 5 days, open flask
  Color and state: White solid
  Salt form: No change
[3]; 92.5% RH, 10 days, open flask
  Color and state: White solid
  Salt form: No change
[3]; 92.5% RH, 30 days, open flask
  Color and state: White solid
  Salt form: No change
[3]; Initial, 0 days
  Color and state: White solid
  Salt form: Crystal form
[3]; [13]
  Color and state: White solid
  Purity %: 99.2%
  Salt form: No change
[3]; [14]
  Color and state: White solid
  Purity %: 98.4%
  Salt form: No change
[3]; [15]
  Color and state: White solid
  Purity %: 96.2%
  Salt form: No change
[3]; 30 days
  chemical stability under high humidity conditions: good
[3]; [16]
  physical stability: good
